Test results: patent US9409905B2, “Antibacterial compounds and methods for use” (PTC THERAPEUTICS, INC., priority 2011, dated 2016)
Converted amounts (≈) assume the structure as drawn.

How the values were obtained:
[1] = system: Staphylococcus aureus (S. aureus) 29213; test: Antibacterial activity, microbroth dilution MIC (Table 1); type: cell-based; conditions: microbroth dilution, Gram-positive S. aureus 29213, read-out: MIC, 29213
Method in brief: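 Microbroth dilution was used. MIC, in μg/mL, is the lowest drug concentration preventing macroscopically visible growth under the test conditions.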

[2] = system: Escherichia coli (E. coli) BAS849; test: as above; type: cell-based; conditions: microbroth dilution, super sensitive Gram-negative E. coli BAS849, read-out: MIC, BAS849
Method in brief: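 Each strain is exposed to test compound in a microbroth dilution series; visible growth is scored macroscopically, and the lowest growth-free concentration is recorded as MIC in μg/mL.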

[3] = system: Moraxella catarrhalis (M. catarrhalis) 25238; test: Antibacterial activity, MIC (Table 7); type: cell-based
Text: The antibacterial activity from a microbroth dilution method may be presented as the minimum inhibitory concentration (MIC in μg/mL). The MIC value is the lowest concentration of drug which prevents macroscopically visible growth under test conditions.
Antibacterial activity of test compounds against the Gram-negative bacteria Haemophilus influenzae (H. influenzae) 49247 is shown in Table 6, Moraxella catarrhalis (M. catarrhalis) 25238 is shown in Table 7 and Neisseria meningitidis (N. meningitidis) 13090 is shown in Table 8.

E. coli 25922 = test: Antibacterial activity, microbroth dilution MIC (Table 1); type: cell-based, Escherichia coli; conditions: Escherichia coli; microbroth dilution; control Gram-negative E. coli 25922 strain; read-out: MIC, 25922
Method in brief: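 MIC (μg/mL) is taken as the lowest concentration with no macroscopically visible growth. Strains tested by microbroth dilution: Gram-positive S. aureus 29213, control Gram-negative E. coli 25922, and super-sensitive E. coli BAS849.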

[4] = system: Neisseria meningitidis (N. meningitidis) 13090; test: Antibacterial activity, MIC (Table 8); type: cell-based
Method in brief: (§1)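 Broth microdilution MIC, read as the lowest drug concentration preventing macroscopically visible growth under test conditions and reported in μg/mL.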

E. coli LZ3111 = test: Antibacterial activity, MIC, quinolone resistant strain (Table 2); type: cell-based; conditions: Escherichia coli, LZ3111, read-out: MIC LZ3111
Method in brief: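 Microbroth dilution method; MIC (μg/mL) is the lowest drug concentration preventing macroscopically visible growth under test conditions.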

K. pneumoniae MXX1232 = test: Antibacterial activity, MIC, resistant strain (Table 4); type: cell-based; conditions: Klebsiella pneumoniae, MXX1232; resistant K. pneumoniae MMX1232, multi-drug resistant clinical isolate; read-out: MIC, MMX1232
Method in brief: (§2)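 The resistant panel comprises multi-drug resistant clinical isolates. All strains were tested by microbroth dilution, with the MIC in μg/mL taken as the lowest concentration that prevented macroscopically visible growth.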

A. baumannii MXX2240 = test: as above; type: cell-based; conditions: Acinetobacter baumannii, MXX2240; resistant A. baumannii MMX2240, multi-drug resistant clinical isolate; read-out: MIC, MMX2240
Method in brief: as §2

[5] = system: Haemophilus influenzae (H. influenzae) 49247; test: Antibacterial activity, MIC (Table 6); type: cell-based
Method in brief: as §1

[6] = system: Pseudomonas aeruginosa (P. aeruginosa) 27853; test: Antibacterial activity, MIC (Table 5); type: cell-based; conditions: P. aeruginosa 27853, read-out: MIC, 27853
Method in brief: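 Activity was measured by microbroth dilution. The MIC, in μg/mL, is the lowest drug concentration that prevents macroscopically visible growth under the test conditions.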

[7] = system: Acinetobacter baumannii (A. baumannii) BAA747; test: Antibacterial activity, MIC (Table 4); type: cell-based; conditions: A. baumannii BAA747, read-out: MIC, BAA747
Method in brief: as §2

[8] = system: Klebsiella pneumoniae (K. pneumoniae) 35657; test: Antibacterial activity, MIC (Table 4); type: cell-based; conditions: K. pneumoniae 35657, read-out: MIC, 35657
Method in brief: as §2

E. coli ELZ4000 = test: Antibacterial activity, MIC, multi-drug resistant clinical isolate (Table 3); type: cell-based; conditions: Escherichia coli, ELZ4000, read-out: MIC ELZ4000
Method in brief: (§3)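 Broth microdilution assay; MIC reported in μg/mL as the lowest drug concentration preventing macroscopically visible growth under test conditions.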

E. coli ELZ4251 = test: as above; type: cell-based; conditions: Escherichia coli
Method in brief: as §3

Row | SMILES | MIC [1] [µg/mL] | MIC [2] [µg/mL] | MIC [3] [µg/mL] | MIC (E. coli 25922) [µg/mL] | MIC [4] [µg/mL] | MIC (E. coli LZ3111) [µg/mL] | MIC (K. pneumoniae MXX1232) [µg/mL] | MIC (A. baumannii MXX2240) [µg/mL] | MIC [5] [µg/mL] | MIC [6] [µg/mL] | MIC [7] [µg/mL] | MIC [8] [µg/mL] | MIC (E. coli ELZ4000) [µg/mL] | MIC (E. coli ELZ4251) [µg/mL]
1 | CCc1c(-c2ccc3c(c2)cc(CN2CCC(N(C)C)CC2)n3C)[nH]c(=O)c(C(=O)O)c1O [Cpd 248, 6-(2-((4-(dimethylamino)piperidin-1-yl)methyl)-1-methyl-1H-indol-5-yl)-5-ethyl-4-hydroxy-2-oxo-1,2-dihydropyridine-3-carboxylic acid] | 3.5 to 12.5 (≈ 7.73 to 27.6 µM) | < 1 | 1 to 3.5 (≈ 2.21 to 7.73 µM) | < 1 | < 1 | 3.5 to 12.5 (≈ 7.73 to 27.6 µM) | 12.5 to 150 (≈ 27.6 to 331 µM) | 12.5 to 150 (≈ 27.6 to 331 µM) | < 1 | 12.5 to 150 (≈ 27.6 to 331 µM) | 1 to 3.5 (≈ 2.21 to 7.73 µM) | 1 to 3.5 (≈ 2.21 to 7.73 µM) | 12.5 to 150 (≈ 27.6 to 331 µM) | 12.5 to 150 (≈ 27.6 to 331 µM)
2 | CCc1c(-c2ccc3c(c2)cc(CN2C[C@H]4CC[C@@H](N)[C@H]4C2)n3C)[nH]c(=O)c(C(=O)O)c1O [Cpd 276, 6-(2-(((3aR,4R,6aS)-4-aminohexahydrocyclopenta[c]pyrrol-2(1H)-yl)methyl)-1-methyl-1H-indol-5-yl)-5-ethyl-4-hydroxy-2-oxo-1,2-dihydropyridine-3-carboxylic acid] | 3.5 to 12.5 (≈ 7.77 to 27.7 µM) | < 1 | 1 to 3.5 (≈ 2.22 to 7.77 µM) | 1 to 3.5 (≈ 2.22 to 7.77 µM) | < 1 | 3.5 to 12.5 (≈ 7.77 to 27.7 µM) | 12.5 to 150 (≈ 27.7 to 333 µM) | 12.5 to 150 (≈ 27.7 to 333 µM) | 1 to 3.5 (≈ 2.22 to 7.77 µM) | 12.5 to 150 (≈ 27.7 to 333 µM) | 12.5 to 150 (≈ 27.7 to 333 µM) | 1 to 3.5 (≈ 2.22 to 7.77 µM) | 12.5 to 150 (≈ 27.7 to 333 µM) | 12.5 to 150 (≈ 27.7 to 333 µM)
3 | Cc1c(-c2ccc3c(c2)cc(CN(C)C)n3C)[nH]c(=O)c(C(=O)O)c1O [Cpd 314, 6-(2-((dimethylamino)methyl)-1-methyl-1H-indol-5-yl)-4-hydroxy-5-methyl-2-oxo-1,2-dihydropyridine-3-carboxylic acid] | 12.5 to 150 (≈ 35.2 to 422 µM) | < 1 | 3.5 to 12.5 (≈ 9.85 to 35.2 µM) | 3.5 to 12.5 (≈ 9.85 to 35.2 µM) | < 1 | 1 to 3.5 (≈ 2.81 to 9.85 µM) | 12.5 to 150 (≈ 35.2 to 422 µM) | 1 to 3.5 (≈ 2.81 to 9.85 µM) | 1 to 3.5 (≈ 2.81 to 9.85 µM) | 12.5 to 150 (≈ 35.2 to 422 µM) | 3.5 to 12.5 (≈ 9.85 to 35.2 µM) | 3.5 to 12.5 (≈ 9.85 to 35.2 µM) | 3.5 to 12.5 (≈ 9.85 to 35.2 µM) | 1 to 3.5 (≈ 2.81 to 9.85 µM)
4 | CCc1c(-c2ccc3c(c2)cc(CC2CC2C)n3C)[nH]c(=O)c(C(=O)O)c1O.Cl (stereo not drawn) [Cpd 240, 5-ethyl-4-hydroxy-6-(1-methyl-2-((2-methylcyclopropyl)methyl)-1H-indol-5-yl)-2-oxo-1,2-dihydropyridine-3-carboxylic acid hydrochloride] | 3.5 to 12.5 | < 1 | < 1 | < 1 | < 1 | 3.5 to 12.5 | 12.5 to 150 | 1 to 3.5 | < 1 | 3.5 to 12.5 | < 1 | < 1 | 12.5 to 150 | 3.5 to 12.5
5 | CCc1c(-c2ccc3c(c2)cc(CN2CC[C@H](N)C2)n3C)[nH]c(=O)c(C(=O)O)c1O [Cpd 180, (S)-6-(2-((3-aminopyrrolidin-1-yl)methyl)-1-methyl-1H-indol-5-yl)-5-ethyl-4-hydroxy-2-oxo-1,2-dihydropyridine-3-carboxylic acid] | 12.5 to 150 (≈ 30.5 to 365 µM) | < 1 | 3.5 to 12.5 (≈ 8.53 to 30.5 µM) | 1 to 3.5 (≈ 2.44 to 8.53 µM) | 1 to 3.5 (≈ 2.44 to 8.53 µM) | 1 to 3.5 (≈ 2.44 to 8.53 µM) | 12.5 to 150 (≈ 30.5 to 365 µM) | 12.5 to 150 (≈ 30.5 to 365 µM) | 1 to 3.5 (≈ 2.44 to 8.53 µM) | 12.5 to 150 (≈ 30.5 to 365 µM) | 12.5 to 150 (≈ 30.5 to 365 µM) | 3.5 to 12.5 (≈ 8.53 to 30.5 µM) | 12.5 to 150 (≈ 30.5 to 365 µM) | 3.5 to 12.5 (≈ 8.53 to 30.5 µM)
6 | CCc1c(-c2cnc3c(ccn3C)c2)[nH]c(=O)c(C(=O)O)c1O [Cpd 32, 5-ethyl-4-hydroxy-6-(1-methyl-1H-pyrrolo[2,3-b]pyridin-5-yl)-2-oxo-1,2-dihydropyridine-3-carboxylic acid] | 3.5 to 12.5 (≈ 11.2 to 39.9 µM) | < 1 | 1 to 3.5 (≈ 3.19 to 11.2 µM) | 12.5 to 150 (≈ 39.9 to 479 µM) | < 1 | 1 to 3.5 (≈ 3.19 to 11.2 µM) | 12.5 to 150 (≈ 39.9 to 479 µM) | < 1 | 1 to 3.5 (≈ 3.19 to 11.2 µM) | 12.5 to 150 (≈ 39.9 to 479 µM) | 12.5 to 150 (≈ 39.9 to 479 µM) | 12.5 to 150 (≈ 39.9 to 479 µM) | 1 to 3.5 (≈ 3.19 to 11.2 µM) | < 1
